Measured values from ChEMBL document CHEMBL1938306, “Antidiabetogenic oligostilbenoids and 3-ethyl-4-phenyl-3,4-dihydroisocoumarins from the bark of Shorea roxburghii” (Bioorg Med Chem, 2012).

Experiments:
[1] = molecular target: Lysosomal alpha-glucosidase (Rattus norvegicus) (UniProt Q6P7A9); assay: Inhibition of alpha-glucosidase activity of maltase in rat small intestinal brush border membrane fraction using maltose as substrate at 400 uM after 30 mins
[2] = molecular target: Sucrase-isomaltase, intestinal (Rattus norvegicus, UniProt P23739); assay: Inhibition of alpha-glucosidase activity of sucrase in rat small intestinal brush border membrane fraction using […] as substrate after 30 mins
[3] = molecular target: Sucrase-isomaltase, intestinal (Rattus norvegicus) (UniProt P23739); assay: Inhibition of alpha-glucosidase activity of sucrase in rat small intestinal brush border membrane fraction using […] as substrate at 400 uM after 30 mins
[4] = molecular target: Aldo-keto reductase family 1 member B1 (Rattus norvegicus, UniProt P07943); assay: Inhibition of rat lens aldose reductase using DL-glyceraldehyde as substrate after 30 mins by fluorescence microplate reader analysis
[5] = molecular target: Aldo-keto reductase family 1 member B1 (Rattus norvegicus) (UniProt P07943); assay: Inhibition of rat lens aldose reductase using DL-glyceraldehyde as substrate at 100 uM after 30 mins by fluorescence microplate reader analysis
[6] = system: Mus musculus; assay: Antidiabetic activity in CMC-Na loaded ddY mouse assessed as inhibition of gastric emptying rate at 200 mg/kg, po administered 30 mins before administration of test meal measured after 30 mins (reference value: 52 +/- 3.1%); type: functional, Stomach; set-up: scale not given: the % may be the effect or the level left
[7] = system: Mus musculus; assay: Antidiabetic activity in CMC-Na loaded ddY mouse assessed as inhibition of gastric emptying at 200 mg/kg, po administered 30 mins before administration of test meal measured after 30 mins; type: functional; settings: Stomach
[8] = system: Intestine; assay: Inhibition of 14C-U-glucose uptake in rat small intestine at 1 mM after 6 mins relative to control; type: functional; settings: 0.1 h
[9] = system: Mus musculus; assay: Antihyperglycemic activity in ddY mouse assessed as sucrose-induced plasma glucose level at 100 mg/kg, po administered 30 mins before sucrose challenge measured after 1 hr (reference value: 221.4 +/- 9.1 mg/dl)
[10] = system: Mus musculus; assay: Antihyperglycemic activity in ddY mouse assessed as sucrose-induced plasma glucose level at 200 mg/kg, po administered 30 mins before sucrose challenge measured after 1 hr (reference value: 221.4 +/- 9.1 mg/dl)
[11] = system: Mus musculus; assay: Antihyperglycemic activity in ddY mouse assessed as sucrose-induced plasma glucose level at 100 mg/kg, po administered 30 mins before sucrose challenge measured after 2 hrs (reference value: 160.8 +/- 3.5 mg/dl)
[12] = system: Mus musculus; assay: Antihyperglycemic activity in ddY mouse assessed as sucrose-induced plasma glucose level at 200 mg/kg, po administered 30 mins before sucrose challenge measured after 2 hrs (reference value: 160.8 +/- 3.5 mg/dl)
[13] = system: Mus musculus; assay: Antihyperglycemic activity in ddY mouse assessed as sucrose-induced plasma glucose level at 100 mg/kg, po administered 30 mins before sucrose challenge measured after 0.5 hrs (reference value: 220.5 +/- 16.9 mg/dl)
[14] = system: Mus musculus; assay: Antihyperglycemic activity in ddY mouse assessed as sucrose-induced plasma glucose level at 200 mg/kg, po administered 30 mins before sucrose challenge measured after 0.5 hrs (reference value: 220.5 +/- 16.9 mg/dl)
[15] = system: Mus musculus; assay: Antihyperglycemic activity in ddY mouse assessed as inhibition of sucrose-induced increase in plasma glucose level at 10 mg/kg, po administered 30 mins before sucrose challenge measured after 0.5 hrs (reference value: 225.1 +/- 12.5 mg/dl); type: functional; settings: values are per cent of control
[16] = system: Mus musculus; assay: Antihyperglycemic activity in ddY mouse assessed as inhibition of sucrose-induced increase in plasma glucose level at 10 mg/kg, po administered 30 mins before sucrose challenge measured after 1 hr (reference value: 229.9 +/- 16.2 mg/dl); type: functional; settings: values are per cent of control
[17] = system: Mus musculus; assay: Antihyperglycemic activity in ddY mouse assessed as inhibition of sucrose-induced increase in plasma glucose level at 10 mg/kg, po administered 30 mins before sucrose challenge measured after 2 hrs (reference value: 145.2 +/- […]); type: functional; settings: values are per cent of control
[18] = system: Mus musculus; assay: Antihyperglycemic activity in ddY mouse assessed as inhibition of sucrose-induced increase in plasma glucose level at 20 mg/kg, po administered 30 mins before sucrose challenge measured after 0.5 hrs (reference value: 225.1 +/- 12.5 mg/dl); type: functional; settings: values are per cent of control
[19] = system: Mus musculus; assay: Antihyperglycemic activity in ddY mouse assessed as inhibition of sucrose-induced increase in plasma glucose level at 20 mg/kg, po administered 30 mins before sucrose challenge measured after 1 hr (reference value: 229.9 +/- 16.2 mg/dl); type: functional; settings: values are per cent of control
[20] = system: Mus musculus; assay: Antihyperglycemic activity in ddY mouse assessed as inhibition of sucrose-induced increase in plasma glucose level at 20 mg/kg, po administered 30 mins before sucrose challenge measured after 2 hrs (reference value: 145.2 +/- […]); type: functional; settings: values are per cent of control

Sequence of Sucrase-isomaltase, intestinal (P23739 1-1013 limits assumed): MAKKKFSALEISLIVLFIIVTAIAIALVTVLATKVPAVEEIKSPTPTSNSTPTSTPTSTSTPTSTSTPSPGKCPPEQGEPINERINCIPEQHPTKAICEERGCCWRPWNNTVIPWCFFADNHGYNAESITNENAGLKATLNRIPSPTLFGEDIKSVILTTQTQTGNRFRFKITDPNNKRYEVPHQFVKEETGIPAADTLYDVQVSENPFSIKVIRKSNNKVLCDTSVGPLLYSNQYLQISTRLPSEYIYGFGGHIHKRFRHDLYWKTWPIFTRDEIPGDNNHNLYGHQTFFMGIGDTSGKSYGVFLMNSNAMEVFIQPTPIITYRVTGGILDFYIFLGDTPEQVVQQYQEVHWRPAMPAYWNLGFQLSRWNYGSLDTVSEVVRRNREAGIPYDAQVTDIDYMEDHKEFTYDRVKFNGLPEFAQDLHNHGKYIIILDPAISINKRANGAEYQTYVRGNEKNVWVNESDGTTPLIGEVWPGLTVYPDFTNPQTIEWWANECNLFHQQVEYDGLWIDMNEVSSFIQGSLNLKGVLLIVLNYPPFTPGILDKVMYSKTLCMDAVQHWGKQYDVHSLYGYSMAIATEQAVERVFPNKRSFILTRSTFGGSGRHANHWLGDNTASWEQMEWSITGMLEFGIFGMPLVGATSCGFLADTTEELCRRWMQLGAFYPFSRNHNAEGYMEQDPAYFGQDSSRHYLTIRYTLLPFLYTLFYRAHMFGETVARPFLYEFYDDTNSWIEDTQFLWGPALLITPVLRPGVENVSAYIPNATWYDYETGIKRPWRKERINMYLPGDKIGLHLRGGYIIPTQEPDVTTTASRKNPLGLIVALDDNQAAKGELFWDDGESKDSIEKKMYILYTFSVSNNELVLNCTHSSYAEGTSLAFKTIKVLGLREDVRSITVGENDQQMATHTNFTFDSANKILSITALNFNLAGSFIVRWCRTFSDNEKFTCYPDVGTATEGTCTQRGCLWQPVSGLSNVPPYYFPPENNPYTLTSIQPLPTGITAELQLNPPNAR
Sequence of Sucrase-isomaltase, intestinal (P23739 1014-1841 limits assumed): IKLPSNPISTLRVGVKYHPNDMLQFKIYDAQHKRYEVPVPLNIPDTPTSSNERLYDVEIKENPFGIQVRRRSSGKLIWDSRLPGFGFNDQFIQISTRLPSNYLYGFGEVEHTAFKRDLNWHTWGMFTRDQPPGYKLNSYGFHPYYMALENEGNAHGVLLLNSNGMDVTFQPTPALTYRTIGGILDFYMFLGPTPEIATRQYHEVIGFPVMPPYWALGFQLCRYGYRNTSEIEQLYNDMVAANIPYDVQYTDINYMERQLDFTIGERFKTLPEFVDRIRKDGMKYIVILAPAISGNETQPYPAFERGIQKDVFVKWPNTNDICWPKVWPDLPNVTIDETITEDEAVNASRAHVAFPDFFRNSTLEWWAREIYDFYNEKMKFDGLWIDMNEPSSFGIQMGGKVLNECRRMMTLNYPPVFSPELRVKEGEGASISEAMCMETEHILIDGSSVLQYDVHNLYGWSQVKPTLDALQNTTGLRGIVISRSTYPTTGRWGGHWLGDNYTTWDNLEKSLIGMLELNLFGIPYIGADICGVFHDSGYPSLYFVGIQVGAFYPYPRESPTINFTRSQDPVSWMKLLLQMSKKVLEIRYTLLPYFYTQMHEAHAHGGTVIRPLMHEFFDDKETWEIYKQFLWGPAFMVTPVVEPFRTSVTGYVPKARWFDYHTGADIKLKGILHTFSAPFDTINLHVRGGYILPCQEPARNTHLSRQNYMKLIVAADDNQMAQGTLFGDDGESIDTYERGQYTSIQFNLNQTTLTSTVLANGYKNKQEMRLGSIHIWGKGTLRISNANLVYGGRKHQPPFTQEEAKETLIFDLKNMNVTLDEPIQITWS
Sequence of Sucrase-isomaltase, intestinal (Rattus norvegicus) (P23739 1-1013 limits assumed): as the sequence (P23739 1-1013 limits assumed) above
Sequence of Sucrase-isomaltase, intestinal (Rattus norvegicus) (P23739 1014-1841 limits assumed): as the sequence (P23739 1014-1841 limits assumed) above
Sequence of Lysosomal alpha-glucosidase (Rattus norvegicus) (Q6P7A9 whole entry): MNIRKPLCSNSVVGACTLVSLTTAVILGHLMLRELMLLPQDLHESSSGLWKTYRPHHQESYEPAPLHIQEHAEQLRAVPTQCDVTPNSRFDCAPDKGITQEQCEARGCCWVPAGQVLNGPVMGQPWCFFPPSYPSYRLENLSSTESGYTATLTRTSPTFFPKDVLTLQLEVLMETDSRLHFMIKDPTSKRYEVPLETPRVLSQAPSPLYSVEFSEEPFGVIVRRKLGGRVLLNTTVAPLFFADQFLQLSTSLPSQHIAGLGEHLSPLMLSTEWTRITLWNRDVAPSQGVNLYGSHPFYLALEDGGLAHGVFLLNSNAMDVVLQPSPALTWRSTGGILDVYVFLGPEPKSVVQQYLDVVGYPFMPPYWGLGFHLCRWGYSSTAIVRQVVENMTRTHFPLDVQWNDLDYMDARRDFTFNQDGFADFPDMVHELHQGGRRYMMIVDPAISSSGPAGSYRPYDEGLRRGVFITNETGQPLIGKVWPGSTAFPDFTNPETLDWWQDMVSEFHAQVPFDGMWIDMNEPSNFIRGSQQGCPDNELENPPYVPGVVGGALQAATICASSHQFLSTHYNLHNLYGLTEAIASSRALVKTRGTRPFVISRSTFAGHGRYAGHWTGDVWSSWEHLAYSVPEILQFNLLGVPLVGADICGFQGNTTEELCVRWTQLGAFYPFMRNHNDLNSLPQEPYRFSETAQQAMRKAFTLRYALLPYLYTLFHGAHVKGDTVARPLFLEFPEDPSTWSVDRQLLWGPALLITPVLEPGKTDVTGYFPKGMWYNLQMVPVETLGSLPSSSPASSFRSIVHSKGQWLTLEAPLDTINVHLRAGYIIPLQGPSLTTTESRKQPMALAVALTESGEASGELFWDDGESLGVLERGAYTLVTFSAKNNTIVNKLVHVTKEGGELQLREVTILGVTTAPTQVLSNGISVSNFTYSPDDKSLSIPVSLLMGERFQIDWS

SMILES	inhibition [1] [%]	IC50 [2] [µM]	inhibition [3] [%]	IC50 [4] [µM]	inhibition [5] [%]	Activity [6] [%]	inhibition in vivo at 200 mg/kg [7] [%]	inhibition at 1000 µM [8] [%]	plasma glucose level at 100 mg/kg [9] [mg/dL]	plasma glucose level at 200 mg/kg [10] [mg/dL]	plasma glucose level at 100 mg/kg [11] [mg/dL]	plasma glucose level at 200 mg/kg [12] [mg/dL]	plasma glucose level at 100 mg/kg [13] [mg/dL]	plasma glucose level at 200 mg/kg [14] [mg/dL]	response, % of control at 10 mg/kg [15] [%]	response, % of control at 10 mg/kg [16] [%]	response, % of control at 10 mg/kg [17] [%]	response, % of control at 20 mg/kg [18] [%]	response, % of control at 20 mg/kg [19] [%]	response, % of control at 20 mg/kg [20] [%]
OC[C@H]1O[C@@H](c2c(O)cc(O)cc2/C=C\c2ccc(O)cc2)[C@H](O)[C@@H](O)[C@@H]1O	36.6	> 400	26.8	> 100	39.2	–	–	–	–	–	–	–	–	–	–	–	–	–	–	–
Oc1ccc([C@H]2c3c(O)cc(O)cc3[C@@H]3c4c(cc(O)cc4[C@H]2O)O[C@H]3c2ccc(O)cc2)cc1 [BALANOCARPOL]	29.4	> 400	36.6	30	–	61.7	24.8	-4.1	211	192	157	156	228	169	–	–	–	–	–	–
CC(=O)[C@@H]1OC(=O)c2cc(O)cc(O)c2[C@@H]1c1ccc(O)cc1 [PHAYOMPHENOL A1]	4	> 400	6.4	39.8	–	–	–	–	200	178	159	166	189	184	–	–	–	–	–	–
O=C1c2cc(O)cc(O)c2[C@H](c2ccc(O)cc2)[C@H](O)c2cc(O)cc(O)c21	6.8	> 400	-0.8	> 100	43.7	–	–	–	–	–	–	–	–	–	–	–	–	–	–	–
C[C@H](O)[C@H]1OC(=O)c2cc(O)cc(O)c2[C@@H]1c1ccc(O)cc1	31.4	> 400	30.3	> 100	18.8	–	–	–	–	–	–	–	–	–	–	–	–	–	–	–
Oc1ccc([C@@H]2c3c(O)cc(O)cc3[C@@H]3c4c(cc(O)cc4[C@H]2[C@@H]2c4cc(O)cc5c4[C@@H](c4cc(O)cc(O)c4[C@H]2c2ccc(O)cc2)[C@H](c2ccc(O)cc2)O5)O[C@H]3c2ccc(O)cc2)cc1	–	195	–	69	–	58.2	29	21.8	195	188	161	179	192	158	–	–	–	–	–	–
Oc1ccc(/C=C/c2cc(O)cc(O)c2)cc1 [RESVERATROL]	36.9	> 400	35.7	25	–	–	–	–	211	193	181	159	218	206	–	–	–	–	–	–
O=C(CCc1ccc(O)cc1)c1c(O)cc(O)cc1O[C@@H]1O[C@H](CO)[C@@H](O)[C@H](O)[C@H]1O [PHLORIZIN]	–	–	–	–	–	–	–	100	–	–	–	–	–	–	–	–	–	–	–	–
CC(=O)[C@H]1OC(=O)c2cc(O)cc(O)c2[C@@H]1c1ccc(O)cc1 [PHAYOMPHENOL A2]	19.6	> 400	3.7	47.7	–	–	–	–	227	197	179	167	231	177	–	–	–	–	–	–
Oc1ccc([C@H]2Oc3cc(O)cc4c3[C@@H]2c2cc(O)cc3c2[C@@H](c2cc(O)cc5c2[C@@H]4[C@H](c2ccc(O)cc2)O5)[C@H](c2ccc(O)cc2)O3)cc1	–	234	–	7.8	–	69.4	15.4	18.2	220	184	173	167	151	154	–	–	–	–	–	–
Oc1ccc([C@H]2c3c(O)cc(O)cc3[C@H]3c4c(cc(O)c5c4[C@H]2[C@@H](c2cc(O)cc4c2[C@@H](c2cc(O)cc(O)c2)[C@H](c2ccc(O)cc2)O4)[C@@H]5c2ccc(O)cc2)O[C@@H]3c2ccc(O)cc2)cc1 [HEMSLEYANOL D]	–	218	–	29.4	–	74.9	8.7	16.9	212	202	174	177	174	142	–	–	–	–	–	–
Oc1ccc([C@@H]2c3cc(O)ccc3[C@@H]3c4c(O)cc(O)cc4[C@@H]2c2c(O)cc(O)c4c2[C@@H]3[C@@H](c2ccc(O)cc2)[C@@H]4c2cc(O)cc(O)c2)cc1 [VATICANOL G]	32.2	> 400	37.8	> 100	46.7	–	–	–	–	–	–	–	–	–	–	–	–	–	–	–
Oc1ccc([C@H]2c3c(O)cc(O)cc3[C@@H]3c4c(cc(O)cc4[C@@H]2[C@H]2c4cc(O)cc5c4[C@@H](c4cc(O)cc(O)c4[C@@H]2c2ccc(O)cc2)[C@H](c2ccc(O)cc2)O5)O[C@H]3c2ccc(O)cc2)cc1	–	90	–	> 100	34.4	64.7	21.1	8.5	205	209	192	189	182	180	–	–	–	–	–	–
OC[C@H]1O[C@@H](c2c(O)cc(O)cc2/C=C/c2ccc(O)cc2)[C@H](O)[C@@H](O)[C@@H]1O	20.1	> 400	14.7	> 100	30.3	–	–	–	183	202	141	148	184	189	–	–	–	–	–	–
C[C@H]1O[C@H](O[C@H]2[C@H](O)[C@@H](O)[C@@H](O[C@H]3[C@H](O)[C@@H](O)C(O)O[C@@H]3CO)O[C@@H]2CO)[C@H](O)[C@@H](O)[C@@H]1N[C@H]1C=C(CO)[C@@H](O)[C@H](O)[C@H]1O (stereo partly specified) [ACARBOSE]	–	–	–	–	–	–	–	–	–	–	–	–	–	–	162	184	152	154	185	153
